Patent US12590099B2, “Inhibitors of histone deacetylase useful for the treatment or prevention of HIV infection” (Merck Sharp & Dohme LLC, priority 2018, dated 2026)
Read-outs that look alike come from different tables or passages of the source.

Columns and labels:
KARN cells (Jurkat 2C4) = experiment: cells; assay type: cell-based; settings: luciferase induction, 100% = 2 μM SAHA
Summary of the method: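 Luminescence (Steady-Glo, 10 min, room temperature) measured next day in KARN Jurkat 2C4 cells given compounds at up to 40 μM final with 0.4% DMSO. Percent activation normalised to DMSO (0%) and 2 μM SAHA (100%), fitted by 4-parameter curve.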

Recombinant human HDAC1 = target: T1, Recombinant human HDAC1 (Homo sapiens, UniProt Q13547); experiment: Human HDAC enzyme inhibitor Fluor-de-Lys assay, HDAC1; assay type: biochemical; settings: recombinant human HDAC1, Fluor-de-Lys assay
T1 construct: FLAG (C); made in house
Summary of the method: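 Fluor-de-Lys format at room temperature (23° C.): compounds titrated 10-point, 1:3, preincubated with HDAC before substrate addition; HDAC1 run at 0.3 nM enzyme with 20 μM BML-KI104. Developer with excess HDAC inhibitor ends the reaction, and trypsin-liberated AMC fluorescence is the read-out.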

[1] = target: T2, Recombinant human HDAC3/SMRT heterodimer (Homo sapiens, UniProt O15379); experiment: Human HDAC enzyme inhibitor Fluor-de-Lys assay, HDAC3/SMRT; assay type: biochemical; settings: recombinant human HDAC3/SMRT, Fluor-de-Lys assay
T2 construct: FLAG (C); made in house

[2] = Homo sapiens, Jurkat, read-out: Karn EC50 (nM) 0.1% NHS, 0.1% normal human serum
[3] = Homo sapiens, Jurkat, read-out: Karn EC50 (nM) 5% NHS, 5% normal human serum

T1 sequence (Q13547 whole entry): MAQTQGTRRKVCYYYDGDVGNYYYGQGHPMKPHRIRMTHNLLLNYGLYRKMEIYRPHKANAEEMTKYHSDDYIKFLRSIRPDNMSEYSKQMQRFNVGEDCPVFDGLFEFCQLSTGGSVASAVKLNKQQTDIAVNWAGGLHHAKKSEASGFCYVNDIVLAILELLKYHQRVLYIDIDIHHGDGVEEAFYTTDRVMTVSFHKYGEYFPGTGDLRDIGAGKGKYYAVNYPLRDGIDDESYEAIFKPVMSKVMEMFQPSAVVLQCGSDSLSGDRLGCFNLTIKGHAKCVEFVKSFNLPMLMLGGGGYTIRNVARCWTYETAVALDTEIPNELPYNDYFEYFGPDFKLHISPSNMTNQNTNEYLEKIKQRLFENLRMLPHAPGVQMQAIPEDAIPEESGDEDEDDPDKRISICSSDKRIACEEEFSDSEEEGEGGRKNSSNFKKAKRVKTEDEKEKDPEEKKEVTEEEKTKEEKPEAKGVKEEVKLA
T2 sequence (O15379 whole entry): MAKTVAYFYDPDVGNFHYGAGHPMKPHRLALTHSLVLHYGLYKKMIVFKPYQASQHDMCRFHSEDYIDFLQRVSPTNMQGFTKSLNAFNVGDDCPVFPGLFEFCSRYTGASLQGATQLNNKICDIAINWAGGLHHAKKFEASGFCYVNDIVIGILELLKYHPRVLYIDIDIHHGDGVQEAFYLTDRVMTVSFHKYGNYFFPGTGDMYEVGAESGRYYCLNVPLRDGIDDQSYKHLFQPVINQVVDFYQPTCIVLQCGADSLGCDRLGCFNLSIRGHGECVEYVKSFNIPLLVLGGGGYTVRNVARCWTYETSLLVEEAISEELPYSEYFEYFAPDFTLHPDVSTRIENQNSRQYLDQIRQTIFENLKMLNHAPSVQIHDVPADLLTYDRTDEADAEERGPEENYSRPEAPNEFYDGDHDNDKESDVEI
T2 sequence (Q9Y618 1-899 partner limits assumed): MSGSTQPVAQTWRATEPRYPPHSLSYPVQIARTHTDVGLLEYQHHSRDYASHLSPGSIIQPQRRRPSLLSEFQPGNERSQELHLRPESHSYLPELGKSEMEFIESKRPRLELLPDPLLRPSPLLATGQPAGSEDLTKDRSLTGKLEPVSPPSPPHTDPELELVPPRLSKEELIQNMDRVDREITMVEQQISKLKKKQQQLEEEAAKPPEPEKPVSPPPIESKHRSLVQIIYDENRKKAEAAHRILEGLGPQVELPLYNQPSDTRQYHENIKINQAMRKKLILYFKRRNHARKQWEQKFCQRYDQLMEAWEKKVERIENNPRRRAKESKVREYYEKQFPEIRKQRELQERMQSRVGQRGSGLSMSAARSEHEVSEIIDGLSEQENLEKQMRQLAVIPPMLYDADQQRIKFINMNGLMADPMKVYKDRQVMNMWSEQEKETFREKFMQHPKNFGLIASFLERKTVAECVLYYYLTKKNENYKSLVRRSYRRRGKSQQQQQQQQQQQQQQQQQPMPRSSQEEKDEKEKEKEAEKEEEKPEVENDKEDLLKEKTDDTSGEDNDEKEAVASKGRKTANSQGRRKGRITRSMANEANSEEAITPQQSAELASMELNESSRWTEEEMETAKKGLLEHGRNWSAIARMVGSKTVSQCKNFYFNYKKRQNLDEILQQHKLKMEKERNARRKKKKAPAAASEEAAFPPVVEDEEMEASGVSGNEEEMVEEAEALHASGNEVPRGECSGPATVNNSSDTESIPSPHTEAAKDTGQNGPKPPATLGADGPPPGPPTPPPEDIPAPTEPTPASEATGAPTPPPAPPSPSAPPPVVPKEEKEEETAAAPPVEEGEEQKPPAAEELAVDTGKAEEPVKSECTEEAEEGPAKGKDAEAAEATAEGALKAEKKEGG

Row | SMILES | EC50 (KARN cells (Jurkat 2C4); [2]) | EC50 (KARN cells (Jurkat 2C4); [3]) | IC50 (Recombinant human HDAC1) | IC50 [1] | EC50 (KARN cells (Jurkat 2C4); read-out: Karn EC50 (nM) 0.1% NHS, 0.1% normal human serum) | EC50 (KARN cells (Jurkat 2C4); read-out: Karn EC50 (nM) 5% NHS, 5% normal human serum)
1 | CCC(=O)CCCCCC(N)(COC)c1ncc(-c2cc3ccc(C)nc3cc2OC)[nH]1 (stereo not drawn) [Compound 414, 9-amino-10-methoxy-9-[5-(7-methoxy-2-methylquinolin-6-yl)-1H-imidazol-2-yl]decan-3-one] | > 40000 nM | > 40000 nM | > 900 nM | > 900 nM | – | –
2 | CCC(=O)CCCCC[C@H](NC(=O)C1=NOC2(CCN(C(=O)OC)CC2)C1)c1ncc(-c2ccccc2)[nH]1 [Compound 381] | 2740 nM | 6410 nM | 179 nM | 26.1 nM | – | –
3 | CCC(=O)CCCCC[C@H](NC(=O)C1=NOC2(CCN(C)CC2)C1)c1ncc(-c2ccc(-c3ccccn3)cc2OC)o1 [Compound 391] | 460 nM | 541 nM | 9.57 nM | 18.6 nM | – | –
4 | CCC(=O)CCCCC[C@H](NC(=O)[C@H]1CC[C@@]2(CC1)OC(=O)c1cccnc12)c1ncc(-c2ccccc2)[nH]1 [Compound 375] | 1450 nM | 9330 nM | 117 nM | 19.9 nM | – | –
5 | CCC(=O)CCCCC[C@H](NC(=O)C1CC12CCOCC2)c1ncc(-c2cc3ccc(C)nc3cc2OC)[nH]1 (single isomer, unassigned) [Compound 413] | – | – | 16.2 nM | 61.9 nM | 348 nM | 1270 nM
6 | CCC(=O)CCCCC[C@H](NC(=O)[C@H]1CC12CCN(C)CC2)c1ncc(-c2cc3ocnc3cc2F)o1 [Compound 389] | 1120 nM | 1550 nM | 21.4 nM | 30.2 nM | – | –
7 | CCN[C@@H](CCCCCC(=O)CC)c1ncc(-c2cc3ccc(C)nc3cc2OC)[nH]1 [Compound 403] | 5340 nM | 5600 nM | 248 nM | 283 nM | – | –
8 | CCC(=O)CCCCC[C@H](NC(=O)[C@H]1CC12CCN(C)CC2)c1ncc(-c2cc3ccncc3cc2OC)o1 [Compound 405] | 65 nM | 57 nM | 0.3 nM | 0.7 nM | – | –
9 | CCC(=O)CCCCC[C@H](NC(=O)[C@H]1CC12CCN(CC1CC1)CC2)c1ncc(-c2cc3ccc(C)nc3cc2OC)o1 [Compound 422] | 15 nM | 10 nM | 0.17 nM | 0.08 nM | – | –
